Reference: US4931391A, “Method for preservation of nitrile hydration activity” (Mitsubishi Rayon Kabushiki Kaisha, priority 1986, dated 1990)
Where two headings read alike, the source gives them in different places.

Experiments:
[1] = target: T1, (Rhodococcus erythropolis, UniProt P13448+P13449); experiment: Preservation of nitrile hydration activity of cell extract, Brevibacterium CBS-717; assay type: biochemical; settings: 48 h; Brevibacterium CBS-717 extract; 1 ml + 1 ml buffer pH 6.5 containing 10 g/l stabilizer; 2 days at 20° C.; read-out: % Residual Activity
T1 construct: whereby a cell extract was obtained; endogenous in cells; host or cells: Brevibacterium CBS-717, French press cell extract
Procedure: In each of the following experimental examples, 0.1 ml of an enzyme solution was charged into a beaker containing 9.9 ml of phosphate buffer and irradiated with a 100-W EYE LAMP (supplied by Toshiba, Japan) positioned at a distance of 50 cm for 30 minutes in a bath maintained at 10° C. to induce the enzyme activity to the fullest extent. The resulting solution was then added to 10 ml of M/20 phosphate buffer (pH 7.7) containing 5.0% by weight of acrylonitrile to cause reaction at 10° C. for 10 minutes. The nitrile hydration activity of the test enzyme solution was determined by measuring the quantity of acrylamide produced by gas chromatography, the capability of producing 1μ mole of acrylamide per ml of the enzyme solution per minute being designated as 1 unit (U). […]
(§1) The cell extract thus obtained was divided into two aliquots, 1 ml of one aliquot being mixed with 1 ml of M/10 phosphate buffer (pH 6.5) containing 10 g/l of ammonium isobutyrate, and 1 ml of the other aliquot being mixed with 1 ml of M/10 phosphate buffer (pH 6.5) as a comparison example. Both solutions were left standing for 2 days at 20° C., and the nitrile hydration activity levels were measured before and after each of the solutions were left standing to calculate % residual activity.

[2] = target: T2, (Rhodococcus erythropolis, UniProt P13448+P13449); experiment: Preservation of nitrile hydration activity of cell extract (crude enzyme solution), stabilizer added before crushing cells; assay type: biochemical, Corynebacterium strain N-774(FERM P-4446); settings: left standing 2 days at 20° C.; buffer containing 10 g/l stabilizer mixed 1:1, pH 6.5
T2 sequence (P13448 2-207 limits assumed): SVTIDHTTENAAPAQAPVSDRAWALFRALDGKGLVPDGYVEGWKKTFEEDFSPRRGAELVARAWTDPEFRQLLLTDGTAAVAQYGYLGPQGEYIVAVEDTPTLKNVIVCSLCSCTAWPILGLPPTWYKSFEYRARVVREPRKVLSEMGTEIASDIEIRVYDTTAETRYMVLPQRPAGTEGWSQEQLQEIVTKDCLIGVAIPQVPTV
T2 sequence (P13449 1-212): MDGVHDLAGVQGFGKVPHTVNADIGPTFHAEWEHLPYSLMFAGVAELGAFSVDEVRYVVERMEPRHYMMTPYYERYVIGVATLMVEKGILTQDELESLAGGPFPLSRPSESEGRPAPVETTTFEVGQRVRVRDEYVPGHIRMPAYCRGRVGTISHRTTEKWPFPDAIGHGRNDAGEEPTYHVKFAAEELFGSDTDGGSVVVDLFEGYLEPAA
Procedure: (§2) A culture medium comprising 10 g/l of glucose, 5 g/l of peptone, 3 g/l of yeast extract, and 3 g/l of malt extract was adjusted to a pH of 7.2, and 100 ml of the resulting culture medium was sterilized in a 500-ml Erlenmeyer flask.
(§3) After cooling, the sterilized culture medium was inoculated with 1 ml of a culture fluid obtained by precultivating strain N-774(FERM P-4446) of the genus Corynebacterium in the same culture medium as is described above for 2 days, and cultivation was carried out aerobically at 30° C. for 2 days.
(§4) Cells were separated from the culture fluid by centrifugation (3° C., 10,000 rpm, 20 minutes) and washed with a physiological saline. The washed cells were subjected to centrifugation under the same conditions and then suspended in a physiological saline to obtain a suspension of washed cells.
(§5) The residual nitrile hydration activity percent (in Table 1, as in all succeeding tables, abbreviated to % residual activity) was calculated on the basis of the data thus obtained.

nitrilase [3] = target: T3, nitrilase (Rhodococcus erythropolis, UniProt P13448+P13449); experiment: as above; assay type: biochemical, Corynebacterium strain N-774(FERM P-4446)
T3 sequence (P13448 2-207 limits assumed): T2 sequence (P13448 2-207 limits assumed)
T3 sequence (P13449 1-212): T2 sequence (P13449 1-212)
Procedure: as §2, §3, §4, §5

nitrilase [4] = settings: 1 ml + 1 ml buffer pH 6.5 containing 10 g/l stabilizer, 2 days at 20° C.
Procedure: In each of the following experimental examples, 0.1 ml of an enzyme solution was charged into a beaker containing 9.9 ml of phosphate buffer and irradiated with a 100-W EYE LAMP (supplied by Toshiba, Japan) positioned at a distance of 50 cm for 30 minutes in a bath maintained at 10° C. to induce the enzyme activity to the fullest extent. The resulting solution was then added to 10 ml of M/20 phosphate buffer (pH 7.7) containing 5.0% by weight of acrylonitrile to cause reaction at 10° C. for 10 minutes. The nitrile hydration activity of the test enzyme solution was determined by measuring the quantity of acrylamide produced by gas chromatography, the capability of producing 1μ mole of acrylamide per ml of the enzyme solution per minute being designated as 1 unit (U).
Each aliquot of a suspension of cells of a genus as shown in Table 2 prepared as in Comparison Example 1 was subjected to French press treatment and centrifugation similarly as in Comparison Example 1, whereby a cell extract was obtained.
as §1

## CC(C)C(=O)O.N [ammonium isobutyrate]
[1]
  activity at 5000 µg/mL: 89%
[2]
  % Residual Activity: 92%
Nitrilase [3]; cell suspension mixed 1:1 with M/10 phosphate buffer pH 6.5 containing 10 g/l stabilizer, then French press
  Activity Before Being Left Standing: 1.3 × 10^3 U/ml
Nitrilase [3]; same extract after 2 days at 20° C.
  Activity After Being Left Standing: 1.2 × 10^3 U/ml
Nitrilase [4]; Bacillus CBS-494 extract
  % Residual Activity: 83%
Nitrilase [4]; Bacteridium CBS-496 extract
  % Residual Activity: 78%
Nitrilase [4]; Micrococcus CBS-497 extract
  % Residual Activity: 91%
Nitrilase [4]; Nocardia N-775 extract
  % Residual Activity: 93%
